A short description of this data set: Corn greenhouse trial: uptake of Compound 2 into leaves from coated seeds. The note with it: corn (maize), in vivo. The method, then:
Plant leaves were macerated using a Geno/Grinder 2000 bead beater homogenizer (SPEX CertiPrep, Metuchen, N.J., USA), and then acetonitrile (˜5 mL/g of leaf tissue) was added. The mixture was further shaken for 1 minute using the Geno/Grinder homogenizer, and then centrifuged. The acetonitrile extract supernatant was analyzed by high performance liquid chromatography with tandem mass spectrometry detection (HPLC/MS/MS) using a Waters (Milford, Mass. USA) Alliance HT2795 chromatograph and Zorbax SB C18 (2.1×50 mm, 5 microns) column eluted with mixtures of water and acetonitrile containing 0.1% (volume/volume) of formic acid, with detection by a Waters Quattro Micro API Mass Spectrometer using electrospray ionization (ESI+). Standard solutions of Compound 1 and Compound 2 were prepared by adding measured amounts of stock solutions of Compound 1 or Compound 2 in acetonitrile or tetrahydrofuran to acetonitrile extracts of leaves from plants grown from untreated seeds.
For corn and Compound 2, a 1:1 weight ratio of nonionic fatty alcohol ethoxylate with Compound 2 was prepared with each additive by mixing the appropriate amount of either 16.7 wt % or 20.0 wt % solution in water of the nonionic fatty alcohol ethoxylate with 1.0 g of Compound 2.
Into a FlackTek™ Max 100 disposable plastic cup were placed 35.0 grams (100 seeds) of corn seeds. […]

The results in this text go back to US8709976B2, “Anthranilic diamide compositions for propagle coating” (E I du Pont de Nemours and Company, priority 2010, dated 2014).

Regarding `CNC(=O)c1cc(Cl)cc(C)c1NC(=O)c1cc(Br)nn1-c1ncccc1Cl` [Compound 2, 3-bromo-N-[4-chloro-2-methyl-6-[(methylamino)carbonyl]phenyl]-1-(3-chloro-2-pyridinyl)-1H-pyrazole-5-carboxamide], the “Uptake microgram/g of leaf” value is reported as 0.42 microgram/g of leaf.
